Where two headings read alike, the source gives them in different places.

Series [1] has as its system cynomolgus monkeys. Put plainly: Diuretic effects (urine volume, urinary electrolytes, renal plasma flow, glomerular filtration rate in anesthetized monkeys). The series is classed as in vivo. The following applies: at 15 min. after dosing, Control : 100%; for Increasing % of glomerular filtration rate: calculated from inulin concentrations; for Increasing % of renal plasma flow: calculated from paraaminohypuric acid concentrations. The procedure: Female cynomolgus monkeys weighing 3.2 - 3.9 kg were anesthetized with sodium pentobarbital (20 mg/kg, i.v.) and were maintained at a stable anesthetic level by continuous infusion of the anesthetic at a rate of 4 mg/kg/hr, and then right saphenous vein was catheterized for intravenous infusion. […] Under monitoring blood pressure, urine samples were taken from bladder by catheter and blood samples were taken from right brachial vein. After 90 min. when urine volume, blood, paraaminohypuric acid and inulin concentrations became stable, blood and urine samples were taken to measure concentrations of paraaminohypuric acid and inulin 45 min. before and 15, 30, 45 and 60 min. after dosing with the test compound. Urine volume and urinary electrolytes were measured and the renal plasma flow and glomerular filtration rate values were calculated from respective paraaminohypuric acid and inulin concentrations in the blood and urine samples.

Series [2] relates to cynomolgus monkeys. The series is described as follows: Effects on increasing renal blood flow (anesthetized, furosemide-pretreated monkeys, electromagnetic blood flowmeter). As to conditions: Dose 0.32 mg/kg intravenously; anesthetized cynomolgus monkeys given furosemide. The series is classed as in vivo. The procedure:
Male and female cynomolgus monkeys weighing 2.0-4.8 kg were fed with conventional diet were given furosemide 10 mg/kg subcutaneously and 5 mg/kg intravenously on the previous day and the day of dosing with the test compound respectively. The animals were anesthetized with sodium pentobarbital (20 mg/kg, i.v.) and were maintained at a stable anesthetic level by continuous infusion of the anesthetic at a rate of 6 mg/kg/hr. After fixing the animals on the bench at 37°C, right femoral artery was catheterized for recording of the mean arterial blood pressure using a pressure transducer and left femoral vein was also catheterized for injection of the drug. Left renal artery was installed with an electromagnetic probe for recording renal blood flow using an electromagnetic blood flowmeter. When blood pressure, heart rate and renal blood flow, became sufficiently stable, the test compound dissolved in physiological saline was intravenously given at a rate of 0.2 ml/kg.

The nature of another series: Acute toxicity test. The following applies: Crj:CD(SD), rat, in vivo, iv, intravenously, observed for 14 days, probit method, read-out: LD₅₀. The arrangement: species or system rats (Crj:CD(SD) strain). The procedure: Five rats (Crj:CD(SD) strain) of either sex were used per group. Solutions of the test compound in physiological saline were administered to rats intravenously. The rats were then observed for 14 days. The LD₅₀ values were calculated by the probit method.

Regarding `CC(C)CC[C@H](O)[C@H](CC1CCCCC1)NC(=O)[C@H](Cc1c[nH]cn1)N(C)C(=O)[C@H](Cc1ccccc1)OC(=O)N(C)CCC(=O)N1CCOCC1.Cl` [(1), 2(S)-[N^α-[2(S)-{N-(2-morpholinocarbonylethyl)-N-methylaminocarbonyloxy}-3-phenylpropionyl]-N^α-methyl-L-histidyl]amino-1-cyclohexyl-3(S)-hydroxy-6-methylheptane hydrochloride], in the series with cynomolgus monkeys [1] (Dose 3.2 mg/kg), the “Increasing % of Cl⁻ excretion” value was determined as 417%, the “Increasing % of K⁺ excretion” value is 135%, the “Increasing % of Na⁺ excretion” value turned out to be 223% and the “Increasing % of urine volume” value was determined as 259%. For the same compound, in the series with cynomolgus monkeys [1] (Dose 3.2 mg/kg), the “Increasing % of glomerular filtration rate” value is recorded as 122% and the “Increasing % of renal plasma flow” value is 149%. In the series on cynomolgus monkeys [2], the “Maximum decreasing % of renal vascular resistance” value (“Maximum decreasing %” for short) was “+19.3%” and the “Maximum increasing % of renal blood flow” value was “+17.1%”. Also, the LD50 at 14 days in the series “Acute toxicity test” (Female rats) is 93.3 mg/kg. Besides, the LD50 at 14 days in the series “Acute toxicity test” (Male rats) was found to be 81.2 mg/kg.
For `CC(C)CC[C@H](O)[C@H](CC1CCCCC1)NC(=O)[C@H](Cc1c[nH]cn1)N(C)C(=O)[C@H](Cc1ccccc1)OC(=O)N(C)CCN(C)C(=O)N1CCOCC1.Cl` [(2), 2(S)-[N^α-[2(S)-[N-methyl-N-[2-{N-(morpholinocarbonyl)-N-methylamino)ethyl]aminocarbonyloxy]-3-phenylpropionyl]-N^α-methyl-L-histidyl]amino-1-cyclohexyl-3(S)-hydroxy-6-methylheptane hydrochloride], in the series with cynomolgus monkeys [1] (Dose 1.0 mg/kg), the “Increasing % of Cl⁻ excretion” value is listed as 466%, the “Increasing % of K⁺ excretion” value was 169%, the “Increasing % of Na⁺ excretion” value amounted to 205% and the “Increasing % of urine volume” value amounted to 202%. Besides, in the series on cynomolgus monkeys [1] (Dose 1.0 mg/kg), the “Increasing % of glomerular filtration rate” value was 156% and the “Increasing % of renal plasma flow” value was 169%. In the series with cynomolgus monkeys [2], the “Maximum decreasing %” value is listed as “+35.5%” and the “Maximum increasing % of renal blood flow” value was “+33.8%”. In addition, the LD50 at 14 days in the series “Acute toxicity test” (Female rats) turned out to be 69 mg/kg. For the same compound, in “Acute toxicity test” (Male rats), the LD50 at 14 days was 55 mg/kg.
As for `C[C@H](CS)C(=O)N1CCC[C@H]1C(=O)O` [(A), Captopril, reference compound], in the series with cynomolgus monkeys [1] (Dose 3.2 mg/kg), the “Increasing % of glomerular filtration rate” value is on record as 114%. For the same compound, the “Maximum decreasing %” value in the series on cynomolgus monkeys [2] was “+11.5%”.

The record behind these values is EP0573652A1, “REMEDY FOR RENAL DISEASES” (FUJISAWA PHARMACEUTICAL CO., LTD., priority 1991, dated 1992).
